Source: patent US20040024024A1, “Aromatic sulfone hydroxamates and their use as protease inhibitors” (priority 2001, published 2004)

Tests used:
Test in all cases: In vitro MMP inhibition, IC50 determination (fluorogenic substrate I)
Type in all cases: biochemical
Human recombinant MMP-13 = target: T1, Human recombinant MMP-13 (Homo sapiens, UniProt P45452)
T1 construct: made in house; host or cells: baculovirus / insect cells
In short: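 Fluorescence at 415 nm (excitation 328 nm) reports Gly-Leu cleavage of 4 μM quenched methoxycoumarin peptide substrate I. Human recombinant MMP-13, activated by trypsin or APMA, was incubated at room temperature with varied inhibitor concentrations in pH 7.5 Tris/NaCl/CaCl2 buffer; IC50 derived from reduced fluorescence.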

Human recombinant MMP-9 = target: T2, Human recombinant MMP-9 (Homo sapiens, UniProt P14780)
T2 construct: made in house; host or cells: MMP-9-transfected HT1080 cells (spent media)
T2 sequence (P14780 107-707 limits assumed): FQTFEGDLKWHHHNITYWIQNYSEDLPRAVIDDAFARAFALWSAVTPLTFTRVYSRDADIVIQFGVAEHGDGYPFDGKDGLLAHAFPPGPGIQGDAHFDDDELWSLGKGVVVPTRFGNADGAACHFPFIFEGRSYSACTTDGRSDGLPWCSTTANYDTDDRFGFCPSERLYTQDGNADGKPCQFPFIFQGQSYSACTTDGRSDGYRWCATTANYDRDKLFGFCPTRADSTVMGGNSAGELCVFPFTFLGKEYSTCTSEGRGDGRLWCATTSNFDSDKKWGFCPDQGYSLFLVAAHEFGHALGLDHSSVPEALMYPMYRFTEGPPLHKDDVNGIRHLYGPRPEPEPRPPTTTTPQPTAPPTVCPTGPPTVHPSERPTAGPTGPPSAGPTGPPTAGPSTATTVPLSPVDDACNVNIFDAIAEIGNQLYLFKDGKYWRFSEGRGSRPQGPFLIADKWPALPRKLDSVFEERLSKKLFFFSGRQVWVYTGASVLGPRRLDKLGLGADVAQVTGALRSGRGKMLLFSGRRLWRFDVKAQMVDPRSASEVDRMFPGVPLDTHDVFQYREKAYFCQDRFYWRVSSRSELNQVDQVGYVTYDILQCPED
Description: (§1) Several hydroxamates and salts thereof were analyzed in in vitro assays to determine their ability to inhibit the MMP cleavage of peptide substrates. Inhibition (Ki) and IC50 constants were calculated from the assayed hydroxamate-MMP interactions.
(§2) Human recombinant MMP-1, MMP-2, MMP-9, MMP-13, and MMP-14 were used in this assay. All enzymes were prepared in Assignee's laboratories following usual laboratory procedures. Protocols for the preparation and use of these enzymes are available in the scientific literature. See, e.g., Enzyme Nomenclature (Academic Press, San Diego, Calif., 1992) (and the citations therein). See also, Frije et al., J. Biol. Chem., 26(24), 16766-73 (1994).
The MMP-9 proenzyme was purified by gelatin Sepharose chromatography from spent media of MMP-9-transfected HT1080 cells provided by Dr. Howard Welgus of Washington University (St. Louis, Mo.).
(§3) All MMPs were activated using 4-aminophenylmercuric acetate (“APMA”, Sigma Chemical, St. Louis, Mo.) or trypsin. MMP-9 also was activated using human recombinant MMP-3 (purified in Assignee's laboratory following standard cloning and purification techniques).
(§4) Two fluorogenic, methoxycoumarin-containing polypeptide substrates were used in the MMP inhibition assays:
(§5) MCA-ProLeuGlyLeuDpaAlaArgNH2 (I)
(§6) Here, “Dpa” is 3-(2,4-dinitrophenyl)-L-2,3-diaminopropionyl group, and “MCA” is 7-methoxycoumarin-4-yl acetyl. Substrate (I) was purchased from Baychem (Redwood City, Calif.), and substrate II was prepared Assignee's laboratory. Substrate I was used in the IC50 determination assays, while substrate II was used in the Ki determination assays. In the absence of MMP inhibitory activity, either substrate is cleaved at the Gly-Leu peptide bond. This cleavage separates the highly fluorogenic peptide from the 2,4-dinitrophenyl quencher, thus resulting in increase of fluorescent intensity.
(§7) The stock solutions of the assayed hydroxamates (or salts thereof) were prepared in 1% dimethyl sulfoxide (DMSO). These stock solutions were diluted in Buffer A (100 mM Tris-HCl, 100 mM NaCl, 10 mM CaCl2, 0.05% polyoxyethylene 23 lauryl ether, pH 7.5) to obtain solutions with different hydroxamate concentrations, i.e., assay solutions with different concentrations of the assayed MMP inhibitory compound. The experiment controls contained the same amount of Buffer A/DMSO as the assayed sample, but contained no hydroxamate (or salt thereof).
(§8) The assays from which the IC50 determinations were made were performed as follows. The MMPs were activated with either trypsin or APMA (4-aminophenylmercuric acetate, Sigma Chemical, St. Louis, Mo.). The assayed hydroxamate samples were, incubated in Microfluorrm White Plates (Dynatech, Chantilly, VA) and analyzed on a Perkin Elmer L550 plate reader (Norwalk, Conn.). The excitation wavelength was 328 nm, and the emission wavelength—415 nm. All samples (assayed hydroxamates and controls) were incubated in separate plates at room temperature in the presence of 4 μM of MMP substrate (I). As stated in the previous paragraph, samples containing varying concentrations of the same assayed hydroxamate were prepared. Inhibition was measured as a reduction in fluorescent intensity as a function of MMP inhibitor concentration.

Human recombinant MMP-1 = target: T3, Human recombinant MMP-1 (Homo sapiens, UniProt P03956)
T3 construct: made in house; host or cells: MMP-1-transfected HT-1080 cells (spent media)
T3 sequence (P03956 100-469): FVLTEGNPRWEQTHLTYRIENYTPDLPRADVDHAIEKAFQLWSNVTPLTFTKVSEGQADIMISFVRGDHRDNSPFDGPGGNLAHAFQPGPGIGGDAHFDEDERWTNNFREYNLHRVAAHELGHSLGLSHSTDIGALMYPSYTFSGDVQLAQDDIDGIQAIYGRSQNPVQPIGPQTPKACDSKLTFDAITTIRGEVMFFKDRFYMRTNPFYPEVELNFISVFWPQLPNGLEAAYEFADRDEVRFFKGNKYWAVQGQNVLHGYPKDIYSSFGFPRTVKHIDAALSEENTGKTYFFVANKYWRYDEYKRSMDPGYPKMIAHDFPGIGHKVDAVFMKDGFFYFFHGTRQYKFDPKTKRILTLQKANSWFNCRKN
Description: as §1, §2
The MMP-1 proenzyme was purified from the spent media of MMP-1-transfected HT-1080 cells provided by Dr. Harold Welgus of Washington University (St. Louis, Mo.). The protein was purified on a zinc chelating column.
as §3, §4, §5, §6, §7, §8

Human recombinant MMP-2 = target: T4, Human recombinant MMP-2 (Homo sapiens, UniProt P08253)
T4 construct: made in house; host or cells: MMP-2-transfected p2AHT2 cells
T4 sequence (P08253 110-660): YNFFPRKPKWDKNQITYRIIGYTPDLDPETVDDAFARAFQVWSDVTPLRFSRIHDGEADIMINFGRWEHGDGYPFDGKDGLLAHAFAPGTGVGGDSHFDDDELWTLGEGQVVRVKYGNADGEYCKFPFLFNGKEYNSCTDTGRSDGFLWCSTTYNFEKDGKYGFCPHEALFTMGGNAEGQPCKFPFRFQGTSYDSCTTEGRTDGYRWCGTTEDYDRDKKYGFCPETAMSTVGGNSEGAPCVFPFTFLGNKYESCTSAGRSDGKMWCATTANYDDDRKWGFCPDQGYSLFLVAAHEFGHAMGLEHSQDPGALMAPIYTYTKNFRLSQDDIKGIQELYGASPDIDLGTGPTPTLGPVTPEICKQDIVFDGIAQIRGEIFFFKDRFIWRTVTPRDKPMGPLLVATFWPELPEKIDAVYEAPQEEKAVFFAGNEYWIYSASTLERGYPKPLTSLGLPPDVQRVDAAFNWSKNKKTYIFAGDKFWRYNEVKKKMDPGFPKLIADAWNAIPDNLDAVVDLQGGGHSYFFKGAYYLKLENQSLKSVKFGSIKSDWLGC
In short: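 APMA- or trypsin-activated recombinant MMP-2 was incubated at room temperature with serial inhibitor dilutions in Tris buffer pH 7.5 (100 mM NaCl, 10 mM CaCl2, 0.05% Brij), with DMSO from 1% stocks, and 4 μM substrate I. Cleavage was read by fluorescence at 328/415 nm; IC50 was taken from the loss of fluorescence versus inhibitor concentration.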

[1] = value outside parentheses (Ki in parenthesis)

Structure (SMILES)	IC50 (Human recombinant MMP-1; [1])	IC50 (Human recombinant MMP-13; [1])	IC50 (Human recombinant MMP-2; [1])	IC50 (Human recombinant MMP-13; value outside parentheses)	IC50 (Human recombinant MMP-2; value outside parentheses)	further results
O=C1CN(c2ccccc2)C(=O)N1CCCOc1ccc(S(=O)(=O)C2(C(=O)NO)CCOCC2)cc1 [Example 263]	–	–	–	–	–	IC50 (Human recombinant MMP-13; value outside parenthesis): 3.8 nM; IC50 (Human recombinant MMP-9; value outside parenthesis): 3270 nM
CC(C)(COc1ccc(S(=O)(=O)C2(C(=O)NO)CCOCC2)cc1)CSc1ccc(OC(F)(F)F)cc1 [Example 435]	> 10 µM	500 nM	> 10000 nM	–	–	–
COc1cccc(SCC(C)(C)COc2ccc(S(=O)(=O)C3(C(=O)NO)CCOCC3)cc2)c1 [Example 436]	> 10 µM	100 nM	1500 nM	–	–	–
O=C(NO)C1(S(=O)(=O)c2ccc(OCCCOCc3cc(C(F)(F)F)cc(C(F)(F)F)c3)cc2)CCOCC1 [Example 454]	> 10 µM	27 nM	165 nM	–	–	–
CN(CCCC(=O)O)c1ccc(S(=O)(=O)C2(C(=O)NO)CCOCC2)cc1 [Example 457]	> 10 µM	> 10000 nM	> 10000 nM	–	–	–
COC(=O)CCCN(C)c1ccc(S(=O)(=O)C2(C(=O)NO)CCOCC2)cc1 [Example 458]	> 10 µM	1400 nM	3500 nM	–	–	–
CCCCCN(C)c1ccc(S(=O)(=O)C2(C(=O)NO)CCOCC2)cc1 [Example 459]	> 10 µM	670 nM	700 nM	–	–	–
CC(C)OCCCNc1ccc(S(=O)(=O)C2(C(=O)NO)CCOCC2)cc1 [Example 461]	> 10 µM	590 nM	2200 nM	–	–	–
CC(C)(CCc1ccccc1)Oc1ccc(S(=O)(=O)C2(C(=O)NO)CCOCC2)cc1 [Example 468]	> 10 µM	1500 nM	2500 nM	–	–	–
CC(CCOc1ccc(S(=O)(=O)C2(C(=O)NO)CCOCC2)cc1)CC(C)(C)C (stereo not drawn) [Example 469]	> 10 µM	60 nM	145 nM	–	–	–
CC(C)=CCCC(C)CCOc1ccc(S(=O)(=O)C2(C(=O)NO)CCOCC2)cc1 (stereo not drawn) [Example 470]	> 10 µM	3 nM	7 nM	–	–	–
CC(C)=CC1C(COc2ccc(S(=O)(=O)C3(C(=O)NO)CCOCC3)cc2)C1(C)C (stereo not drawn) [Example 471]	> 10 µM	120 nM	270 nM	–	–	–
COC(C)(C)CCCC(C)CCOc1ccc(S(=O)(=O)C2(C(=O)NO)CCOCC2)cc1 (stereo not drawn) [Example 474]	> 10 µM	3 nM	12 nM	–	–	–
CC1CCCCC1COc1ccc(S(=O)(=O)C2(C(=O)NO)CCOCC2)cc1 (stereo not drawn) [Example 477]	1.3 µM	2 nM	1.5 nM	–	–	–
O=C(NCCNc1ccc(S(=O)(=O)C2(C(=O)NO)CCOCC2)cc1)c1cc2ccccc2o1 [Example 621]	–	–	–	17.8 nM	368 nM	–
CC(C)Cc1cccc(CCCOc2ccc(S(=O)(=O)C3(C(=O)NO)CCOCC3)cc2)c1 [Example 640]	–	–	–	10.4 nM	324 nM	–
O=C(NO)C1(S(=O)(=O)c2ccc(OCCCc3cccc(N4CCNCC4)c3)cc2)CCN(C2CC2)CC1 [Example 641]	–	–	–	5 nM	135 nM	–
O=C(COc1ccc(S(=O)(=O)C2(C(=O)NO)CCOCC2)cc1)Nc1cccc(-c2ccccc2)c1 [Example 642]	–	–	–	36.9 nM	2890 nM	–
O=C(NCCCOc1ccc(S(=O)(=O)C2(C(=O)NO)CCN(C3CC3)CC2)cc1)C1C2CC3CC(C2)CC1C3 (stereo not drawn) [Example 643]	–	–	–	11.4 nM	1130 nM	–
CN(CCCOc1ccc(S(=O)(=O)C2(C(=O)NO)CCN(C3CC3)CC2)cc1)C(=O)C1C2CC3CC(C2)CC1C3 (stereo not drawn) [Example 644]	–	–	–	20.9 nM	2630 nM	–
CC(=O)c1ccc(OCCOc2ccc(S(=O)(=O)C3(C(=O)NO)CCOCC3)cc2)cc1 [Example 659]	–	–	–	0.41 nM	3.91 nM	IC50 (Human recombinant MMP-1; value outside parentheses): > 10 µM; IC50 (Human recombinant MMP-9; value outside parentheses): 47.1 nM
